What was measured:
Settings in all cases: 72 h
Caco-2 [1] = assay: cell viability relative to DMSO; higher = less toxic
HepG2 [2] = assay: as above
U2OS [3] = assay: as above
Vero E6 [4] = assay: as above
Caco-2 [5] = assay: relative viability EC50 (midpoint between 100% and the lowest measured viability); higher = less toxic
HepG2 [6] = assay: as above
U2OS [7] = assay: as above
Vero E6 [8] = assay: as above
Caco-2 [9] = assay: drug sensitivity score (DSS) for viability; higher = more toxic; extreme values may be limits of the assay
HepG2 [10] = assay: as above
U2OS [11] = assay: as above
Vero E6 [12] = assay: as above
Calu-3 [13] = assay: cell viability relative to DMSO; higher = less toxic
Calu-3 [14] = assay: relative viability EC50 (midpoint between 100% and the lowest measured viability); higher = less toxic
Calu-3 [15] = assay: drug sensitivity score (DSS) for viability; higher = more toxic; extreme values may be limits of the assay

Row | SMILES | cell viability (Caco-2 [1]; 1 nM) | cell viability (Caco-2 [1]; 10 nM) | cell viability (Caco-2 [1]; 100 nM) | cell viability (Caco-2 [1]; 1000 nM) | cell viability (Caco-2 [1]; 10000 nM) | cell viability (HepG2 [2]; 1 nM) | cell viability (HepG2 [2]; 10 nM) | cell viability (HepG2 [2]; 100 nM) | cell viability (HepG2 [2]; 1000 nM) | cell viability (HepG2 [2]; 10000 nM) | cell viability (U2OS [3]; 1 nM) | cell viability (U2OS [3]; 10 nM) | cell viability (U2OS [3]; 100 nM) | cell viability (U2OS [3]; 1000 nM) | cell viability (U2OS [3]; 10000 nM) | cell viability (Vero E6 [4]; 1 nM) | cell viability (Vero E6 [4]; 10 nM) | cell viability (Vero E6 [4]; 100 nM) | cell viability (Vero E6 [4]; 1000 nM) | cell viability (Vero E6 [4]; 10000 nM) | relative viability EC50 (Caco-2 [5]) | relative viability EC50 (HepG2 [6]) | relative viability EC50 (U2OS [7]) | relative viability EC50 (Vero E6 [8]) | drug sensitivity score (Caco-2 [9]) | drug sensitivity score (HepG2 [10]) | drug sensitivity score (U2OS [11]) | drug sensitivity score (Vero E6 [12]) | cell viability (Calu-3 [13]; 1 nM) | cell viability (Calu-3 [13]; 10 nM) | cell viability (Calu-3 [13]; 100 nM) | cell viability (Calu-3 [13]; 1000 nM) | cell viability (Calu-3 [13]; 10000 nM) | relative viability EC50 (Calu-3 [14]) | drug sensitivity score (Calu-3 [15])
1 | Nc1ncnc2c1c(-c1ccc(Cl)cc1)nn2-c1cccc(-c2cnnn2Cc2cccc(-c3ccccc3)c2)c1 [KB-SRC-4] | 99.1% | 94.7% | 99.7% | 93.6% | 101% | 107% | 98.4% | 99.1% | 99.5% | 111% | 95.2% | 96.5% | 95.5% | 101% | 103% | 97.7% | 99.1% | 95.9% | 93.7% | 105% | > 10 µM | > 10 µM | > 10 µM | > 10 µM | 0 | 0 | 0 | 0 |  |  |  |  |  |  | 
2 | CC(C)NC(=O)COc1cccc(-c2nc(Nc3ccc4[nH]ncc4c3)c3ccccc3n2)c1 [KD025] | 104% | 100% | 102% | 97.8% | 70.5% | 98.7% | 96.8% | 107% | 86.8% | 94.5% | 97.2% | 103% | 97.5% | 101% | 46.5% | 105% | 99.1% | 104% | 97.3% | 72.8% |  | > 10 µM | 3.29 µM |  | 1.6 | 0.8 | 2.7 | 1.5 | 95.6% | 108% | 89.4% | 105% | 108% | > 10 µM | 0
3 | CCCCCCCCCCCCCCCc1cccc(OCC(=O)NCCO)c1 [PDP-EA] | 105% | 109% | 98.2% | 109% | 109% | 102% | 113% | 95.6% | 115% | 103% |  |  |  |  |  |  |  |  |  |  | > 10 µM | > 10 µM |  |  | 0 | 0 |  |  | 102% | 87.2% | 94.9% | 91.5% | 91.7% | > 10 µM | 0
4 | O=C(CCCCCCC(=O)NO)NO [SBHA] | 95.6% | 99.4% | 109% | 98.1% | 86.7% | 104% | 96.9% | 105% | 94.4% | 48.7% | 104% | 96.3% | 100% | 98.2% | 81.7% | 106% | 99.8% | 99.6% | 102% | 80.4% | > 10 µM | 2.27 µM | > 10 µM | > 10 µM | 0.2 | 3.6 | 0.7 | 0.4 | 104% | 95.9% | 86.4% | 90.1% | 72.6% |  | 2.4
5 | O=C1c2c(O)cccc2C([C@@H]2O[C@H](CO)[C@@H](O)[C@H](O)[C@H]2O)c2cc(CO)cc(O)c21 (some centres not stated) [aloin] | 92.1% | 104% | 96.6% | 93.9% | 99.4% | 106% | 94.1% | 103% | 94.7% | 103% | 96.9% | 100% | 92.9% | 97.4% | 92.7% |  |  |  |  |  | > 10 µM | > 10 µM | > 10 µM |  | 0 | 0 | 0 |  | 104% | 95.7% | 103% | 104% | 97.3% | > 10 µM | 0
6 | Nc1c(CC(=O)O)cccc1C(=O)c1ccccc1 [amfenac] | 101% | 97.4% | 104% | 94.1% | 97.4% | 103% | 105% | 97.9% | 106% | 101% | 101% | 96% | 102% | 97.2% | 104% | 94.1% | 102% | 97.2% | 102% | 102% | > 10 µM | > 10 µM | > 10 µM | > 10 µM | 0 | 0 | 0 | 0 |  |  |  |  |  |  | 
7 | CCOCCn1c(C2CCN(CCc3ccc(C(C)(C)C(=O)O)cc3)CC2)nc2ccccc21 [bilastine] | 102% | 87.5% | 85.6% | 92.5% | 87.8% | 94.3% | 96% | 104% | 97.6% | 100% | 96.6% | 98.2% | 103% | 103% | 95.7% |  |  |  |  |  | > 10 µM | > 10 µM | > 10 µM |  | 3.1 | 0 | 0 |  | 98.1% | 106% | 93.5% | 97.8% | 99.5% | > 10 µM | 0
8 | CC(C)(C)[C@H]1CC[C@H](CC2=C(O)C(=O)c3ccccc3C2=O)CC1 [buparvaquone] | 94.1% | 101% | 102% | 111% | 81.3% | 99.5% | 104% | 98.9% | 93.9% | 71.1% | 97.4% | 100% | 99.3% | 102% | 97.6% | 102% | 101% | 105% | 82.7% | 65.5% | > 10 µM |  | > 10 µM |  | 0.3 | 2.2 | 0 | 3.8 | 91.4% | 104% | 95% | 96.6% | 94% | > 10 µM | 0
9 | CN(C)CCOC(c1ccccc1)c1ccccc1 [diphenhydramine] | 100% | 93.9% | 96.1% | 91.8% | 128% | 97.8% | 93.3% | 95.3% | 103% | 84.4% | 102% | 103% | 104% | 96.5% | 102% |  |  |  |  |  | > 10 µM | > 10 µM | > 10 µM |  | 0 | 0.2 | 0 |  | 97.5% | 104% | 114% | 112% | 105% | > 10 µM | 0
10 | CC[C@H](C)[C@@H]([C@@H](CC(=O)N1CCC[C@H]1[C@H](OC)[C@@H](C)C(=O)N[C@@H](Cc1ccccc1)c1nccs1)OC)N(C)C(=O)[C@@H](NC(=O)[C@H](C(C)C)N(C)C)C(C)C [dolastatin-10] | 51.5% | 40.6% | 35% | 32.2% | 20.8% | 24.5% | 32.5% | 32.5% | 29.4% | 22.2% | 35.8% | 22.7% | 15.4% | 15.6% | 11.1% | 38.5% | 24.6% | 18.4% | 17.9% | 9.9% | < 0.001 µM | < 0.001 µM | < 0.001 µM | < 0.001 µM | 31.3 | 34 | 40 | 39 |  |  |  |  |  |  | 
11 | Oc1cc(O)c(Cl)cn1 [gimeracil] | 97.8% | 92.7% | 97.7% | 95.8% | 98.1% | 105% | 106% | 98.3% | 96.2% | 87.2% | 100% | 100% | 104% | 98.5% | 104% |  |  |  |  |  | > 10 µM | > 10 µM | > 10 µM |  | 0 | 0.2 | 0 |  | 107% | 105% | 104% | 98.3% | 92.4% | > 10 µM | 0
12 | Cc1ccnc2c1CCCC2C(N)=S (configuration not stated) [isotiquimide] | 106% | 102% | 99.9% | 96% | 110% | 103% | 100% | 92.4% | 99.4% | 98.6% | 102% | 97.4% | 100% | 101% | 102% |  |  |  |  |  | > 10 µM | > 10 µM | > 10 µM |  | 0 | 0 | 0 |  | 95.1% | 86.7% | 98.1% | 107% | 106% | > 10 µM | 0
13 | CCn1cc(C(=O)O)c(=O)c2cnc(N3CCNCC3)nc21 [pipemidic-acid] | 94.2% | 102% | 95.5% | 99.4% | 92.9% | 110% | 108% | 107% | 99.8% | 102% | 98.7% | 101% | 97.4% | 104% | 100% |  |  |  |  |  | > 10 µM | > 10 µM | > 10 µM |  | 0 | 0 | 0 |  | 107% | 99.1% | 103% | 96.9% | 91.9% | > 10 µM | 0
14 | CNCc1ccc(-c2[nH]c3cc(F)cc4c3c2CCNC4=O)cc1 [rucaparib] | 94.7% | 91.2% | 97.4% | 94.5% | 89.6% | 98.8% | 109% | 95.5% | 92% | 78.7% | 101% | 93.4% | 98.7% | 102% | 106% | 96.4% | 99.9% | 96.1% | 93.7% | 93.3% | > 10 µM | > 10 µM | > 10 µM | > 10 µM | 0 | 1.1 | 0 | 0 |  |  |  |  |  |  | 
15 | O=C(O)c1ccc2nc(-c3cc(Cl)cc(Cl)c3)oc2c1 [tafamidis-meglumine] | 103% | 88% | 102% | 90.2% | 103% | 103% | 102% | 99.5% | 99.6% | 96% | 100% | 101% | 101% | 97.6% | 100% |  |  |  |  |  | > 10 µM | > 10 µM | > 10 µM |  | 0 | 0 | 0 |  | 97.6% | 95.8% | 94.7% | 93.1% | 99.2% | > 10 µM | 0
16 | Cc1cccc(C)c1NC(=O)[C@@H](C)N [tocainide] | 96.8% | 95.8% | 97.5% | 101% | 95.5% | 107% | 102% | 91.5% | 94.2% | 95.3% | 100% | 102% | 99.2% | 104% | 98.5% |  |  |  |  |  | > 10 µM | > 10 µM | > 10 µM |  | 0 | 0 | 0 |  | 105% | 92.3% | 90% | 108% | 103% | > 10 µM | 0
